According to patent publication US10793520B2, “Sulfonylaminobenzamide compound and pest control agent” (Nippon Soda Co., Ltd., priority 2016, dated 2020):

Test system: Mythimna separata
Experiment: Efficacy test against Mythimna separata (treated artificial feed)
Conditions: in vivo
Description: Five parts of the compound of the present invention, 93.6 parts of dimethylformamide and 1.4 parts of a polyoxyethylene alkyl aryl ether were mixed together and dissolved to obtain an emulsion (1) containing 5% of the active constituent.
The mortality rate was calculated using the following equation. Mortality rate (%)=(number of dead pests/number of test pests)×100
First, 0.8 g of an artificial feed (Insecta LFS, manufactured by Nosan Corporation) and 1 μl of the emulsion (I) were mixed thoroughly, and 0.2 g of the resulting mixture was placed in each of the treatment areas of a plastic test container (volume: 1.4 ml) to complete preparation of a test feed.
Two second-instar larvae of Mythimna separata were inoculated into each treatment area, and the test container was sealed with a plastic lid. The sealed container was placed in a temperature-controlled room at 25° C., and the mortality rate and the amount of feed consumed were determined on the fifth day. The test was repeated. Further, a test performed under the same conditions, but with the exception of excluding the compound of the present invention from the emulsion (1), was used as a control.

Row | Structure (SMILES) | mortality rate against Mythimna separata, or amount of feed consumed relative to control
1 | COC(=O)c1cc(Br)ccc1NC(=O)c1ccc(C(F)(F)F)cc1NS(=O)(=O)C(F)(F)F [a-49] | 100%, or the amount of feed consumed was 10% or less
2 | O=C(Nc1ccc([N+](=O)[O-])cc1)c1ccc(C(F)(F)F)cc1NS(=O)(=O)C(F)(F)F [a-50] | 100%, or the amount of feed consumed was 10% or less
3 | N#Cc1cc(Cl)ccc1NC(=O)c1ccc(C(F)(F)F)cc1NS(=O)(=O)C(F)(F)F [a-51] | 100%, or the amount of feed consumed was 10% or less
4 | N#Cc1ccc(NC(=O)c2ccc(C(F)(F)F)cc2NS(=O)(=O)C(F)(F)F)c(F)c1 [a-53] | 100%, or the amount of feed consumed was 10% or less
5 | O=C(Nc1ccc(C(F)(F)F)cc1F)c1ccc(C(F)(F)F)cc1NS(=O)(=O)C(F)(F)F [a-54] | 100%, or the amount of feed consumed was 10% or less
6 | O=C(Nc1ccc(Cl)cc1C(F)(F)F)c1ccc(C(F)(F)F)cc1NS(=O)(=O)C(F)(F)F [a-55] | 100%, or the amount of feed consumed was 10% or less
7 | O=C(Nc1ccnc(OCC(F)(F)F)c1)c1ccc(C(F)(F)F)cc1NS(=O)(=O)C(F)(F)F [a-56] | 100%, or the amount of feed consumed was 10% or less
8 | COC(=O)c1cc(F)ccc1NC(=O)c1ccc(C(F)(F)F)cc1NS(=O)(=O)C(F)(F)F [a-57] | 100%, or the amount of feed consumed was 10% or less
9 | COC(=O)c1cc(C(F)(F)F)ccc1NC(=O)c1ccc(C(F)(F)F)cc1NS(=O)(=O)C(F)(F)F [a-58] | 100%, or the amount of feed consumed was 10% or less
10 | CCOc1cc(C(F)(F)F)ccc1NC(=O)c1ccc(C(F)(F)F)cc1NS(=O)(=O)C(F)(F)F [a-59] | 100%, or the amount of feed consumed was 10% or less
11 | COC(=O)c1cc(Cl)ccc1NC(=O)c1ccc(C(F)(F)F)cc1NS(=O)(=O)C(F)(F)F [a-60] | 100%, or the amount of feed consumed was 10% or less
12 | CCOC(=O)c1cc(Br)ccc1NC(=O)c1ccc(C(F)(F)F)cc1NS(=O)(=O)C(F)(F)F [a-61] | 100%, or the amount of feed consumed was 10% or less
13 | COC(=O)c1cc(I)ccc1NC(=O)c1ccc(C(F)(F)F)cc1NS(=O)(=O)C(F)(F)F [a-62] | 100%, or the amount of feed consumed was 10% or less
14 | COC(=O)c1ccc(C(F)(F)F)cc1NC(=O)c1ccc(C(F)(F)F)cc1NS(=O)(=O)C(F)(F)F [a-63] | 100%, or the amount of feed consumed was 10% or less
15 | O=C(Nc1ccc(C(F)(F)F)c(F)c1)c1ccc(C(F)(F)F)cc1NS(=O)(=O)C(F)(F)F [a-64] | 100%, or the amount of feed consumed was 10% or less
16 | CCC(=O)c1cc(C(F)(F)F)ccc1NC(=O)c1ccc(C(F)(F)F)cc1NS(=O)(=O)C(F)(F)F [a-66] | 100%, or the amount of feed consumed was 10% or less
17 | COC(=O)c1cc(C#N)ccc1NC(=O)c1ccc(C(F)(F)F)cc1NS(=O)(=O)C(F)(F)F [a-67] | 100%, or the amount of feed consumed was 10% or less
18 | O=C(Nc1ccc(Br)cc1Cl)c1ccc(C(F)(F)F)cc1NS(=O)(=O)C(F)(F)F [a-68] | 100%, or the amount of feed consumed was 10% or less
19 | O=C(Nc1ccc(Br)c(Cl)c1)c1ccc(C(F)(F)F)cc1NS(=O)(=O)C(F)(F)F [a-69] | 100%, or the amount of feed consumed was 10% or less
20 | O=C(Nc1ccc(Cl)c(C(F)(F)F)c1)c1ccc(C(F)(F)F)cc1NS(=O)(=O)C(F)(F)F [a-70] | 100%, or the amount of feed consumed was 10% or less
21 | COC(=O)c1cc(Cl)cc(Cl)c1NC(=O)c1ccc(C(F)(F)F)cc1NS(=O)(=O)C(F)(F)F [a-71] | 100%, or the amount of feed consumed was 10% or less
22 | COC(=O)c1cc(Br)ccc1NC(=O)c1ccc(Br)cc1NS(=O)(=O)C(F)(F)F [a-73] | 100%, or the amount of feed consumed was 10% or less
23 | COC(=O)c1cc([N+](=O)[O-])ccc1NC(=O)c1ccc(C(F)(F)F)cc1NS(=O)(=O)C(F)(F)F [a-75] | 100%, or the amount of feed consumed was 10% or less

Row | Structure (SMILES) | mortality rate against Mythimna separata, or amount of feed consumed relative to control
24 | O=C(Nc1ccc(Br)cc1-n1cccn1)c1ccc(C(F)(F)F)cc1NS(=O)(=O)C(F)(F)F [a-76] | 100%, or the amount of feed consumed was 10% or less
25 | COC(=O)c1cc(F)c(F)cc1NC(=O)c1ccc(C(F)(F)F)cc1NS(=O)(=O)C(F)(F)F [a-78] | 100%, or the amount of feed consumed was 10% or less
26 | COC(=O)c1cc(I)c(Cl)cc1NC(=O)c1ccc(C(F)(F)F)cc1NS(=O)(=O)C(F)(F)F [a-79] | 100%, or the amount of feed consumed was 10% or less
27 | O=C(Nc1cc(C(F)(F)F)ccc1-n1cccn1)c1ccc(C(F)(F)F)cc1NS(=O)(=O)C(F)(F)F [a-81] | 100%, or the amount of feed consumed was 10% or less
28 | COC(=O)c1cc(C(F)(F)F)c(Cl)cc1NC(=O)c1ccc(C(F)(F)F)cc1NS(=O)(=O)C(F)(F)F [a-82] | 100%, or the amount of feed consumed was 10% or less
29 | COC(=O)c1cc(Br)c(Cl)cc1NC(=O)c1ccc(C(F)(F)F)cc1NS(=O)(=O)C(F)(F)F [a-83] | 100%, or the amount of feed consumed was 10% or less
30 | COC(=O)c1cc(Br)ccc1NC(=O)c1cc(C(F)(F)F)c(Cl)cc1NS(=O)(=O)C(F)(F)F [a-84] | 100%, or the amount of feed consumed was 10% or less
31 | COC(=O)c1cc(Br)c(F)cc1NC(=O)c1ccc(C(F)(F)F)cc1NS(=O)(=O)C(F)(F)F [a-85] | 100%, or the amount of feed consumed was 10% or less
32 | COC(=O)c1cc(C(F)(F)F)c(F)cc1NC(=O)c1ccc(C(F)(F)F)cc1NS(=O)(=O)C(F)(F)F [a-86] | 100%, or the amount of feed consumed was 10% or less
33 | COC(=O)c1cc(F)c(F)cc1NC(=O)c1cc(F)c(F)cc1NS(=O)(=O)C(F)(F)F [a-87] | 100%, or the amount of feed consumed was 10% or less
34 | COC(=O)c1cc(F)c(F)cc1NC(=O)c1cc(Br)c(Cl)cc1NS(=O)(=O)C(F)(F)F [a-88] | 100%, or the amount of feed consumed was 10% or less
35 | COC(=O)c1cc(Cl)c(F)cc1NC(=O)c1ccc(C(F)(F)F)cc1NS(=O)(=O)C(F)(F)F [a-90] | 100%, or the amount of feed consumed was 10% or less
36 | COC(=O)c1ccc(Cl)cc1NC(=O)c1ccc(C(F)(F)F)cc1NS(=O)(=O)C(F)(F)F [a-92] | 100%, or the amount of feed consumed was 10% or less
37 | COC(=O)c1cnc(Cl)cc1NC(=O)c1ccc(C(F)(F)F)cc1NS(=O)(=O)C(F)(F)F [a-96] | 100%, or the amount of feed consumed was 10% or less
38 | COC(=O)c1cc(F)c(F)cc1NC(=O)c1cc(Cl)c(Cl)cc1NS(=O)(=O)C(F)(F)F [a-97] | 100%, or the amount of feed consumed was 10% or less
39 | COC(=O)c1cc(F)c(F)cc1NC(=O)c1cc(F)c(C(F)(F)F)cc1NS(=O)(=O)C(F)(F)F [a-98] | 100%, or the amount of feed consumed was 10% or less
40 | COC(=O)c1cc(F)c(F)cc1NC(=O)c1cc(C(F)(F)F)c(F)cc1NS(=O)(=O)C(F)(F)F [a-99] | 100%, or the amount of feed consumed was 10% or less
41 | COC(=O)c1cc(F)c(F)cc1NC(=O)c1ccc(-c2ccc(C(F)(F)F)nc2)cc1NS(=O)(=O)C(F)(F)F [a-100] | 100%, or the amount of feed consumed was 10% or less
42 | O=C(Nc1ccc(C(F)(F)F)cc1[N+](=O)[O-])c1ccc(C(F)(F)F)cc1NS(=O)(=O)C(F)(F)F [a-103] | 100%, or the amount of feed consumed was 10% or less
43 | COC(=O)c1cc(OC(F)(F)F)ccc1NC(=O)c1ccc(C(F)(F)F)cc1NS(=O)(=O)C(F)(F)F [a-109] | 100%, or the amount of feed consumed was 10% or less
44 | COC(=O)c1cc(OC(F)(F)F)ccc1NC(=O)c1cc(F)c(F)cc1NS(=O)(=O)C(F)(F)F [a-110] | 100%, or the amount of feed consumed was 10% or less
45 | COC(=O)c1cc(C(F)(F)F)ccc1NC(=O)c1cc(F)c(F)cc1NS(=O)(=O)C(F)(F)F [a-111] | 100%, or the amount of feed consumed was 10% or less
46 | COC(=O)c1cc(C(F)(F)F)ccc1NC(=O)c1cc(Br)c(Cl)cc1NS(=O)(=O)C(F)(F)F [a-112] | 100%, or the amount of feed consumed was 10% or less
